PubChem BioAssay AID2060908 (Molecular Pharmacology Branch, DTP, NCI, 2025)

System: 186277-243-T-J2-PDC complex spheroids, viability
Experiment: Anticancer human tumor 186277-243-T-J2-PDC patient-derived colon adenocarcinoma cell line growth inhibition [RAS]
Settings: for IC50: curve of first compound; for viability, T/C: stronger effect = lower value
Summary of the method: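 Multi-cell-type spheroids: tumor cells plus HUVEC endothelial cells and mesenchymal stem cells. RAS-pathway inhibitors were combined with targeted agents, each dosed in half-log steps down from clinical Cmax, or from 10 microM when Cmax was unknown.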

[1] = second compound 0.0316 µM, first compound 0.0316 µM
[2] = second compound 0.0316 µM, first compound 0.1 µM
[3] = second compound 0.0316 µM, first compound 0.316 µM
[4] = second compound 0.0316 µM, first compound 1 µM
[5] = second compound 0.1 µM, first compound 0.0316 µM
[6] = second compound 0.1 µM, first compound 0.1 µM
[7] = second compound 0.1 µM, first compound 0.316 µM
[8] = second compound 0.1 µM, first compound 1 µM
[9] = second compound 0.316 µM, first compound 0.0316 µM
[10] = second compound 0.316 µM, first compound 0.1 µM
[11] = second compound 0.316 µM, first compound 0.316 µM
[12] = second compound 0.316 µM, first compound 1 µM
[13] = second compound 1 µM, first compound 0.0316 µM
[14] = second compound 1 µM, first compound 0.1 µM
[15] = second compound 1 µM, first compound 0.316 µM
[16] = second compound 1 µM, first compound 1 µM
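Also: spheroids exposed to compounds for 7 days before viability read.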

## C=CC(=O)Nc1cc(Nc2nccc(-c3cn(C)c4ccccc34)n2)c(OC)cc1N(C)CCN(C)C + C#Cc1c(F)ccc2cc(O)cc(-c3ncc4c(N5CC6CCC(C5)N6)nc(OCC56CCCN5CC(F)C6)nc4c3F)c12
Second compound 0.0316 µM
  IC50: 0.0974 µM
Second compound 0.1 µM
  IC50: 0.0345 µM
Second compound 0.316 µM
  IC50: < 0.00316 µM
Second compound 1 µM
  IC50: < 0.00316 µM
Second compound 3.16 µM
  IC50: < 0.00316 µM
Second compound 10 µM
  IC50: < 0.00316 µM
Second compound 0.0316 µM, first compound 0.00316 µM
  viability, T/C: 67.1%
Second compound 0.0316 µM, first compound 0.01 µM
  viability, T/C: 76.4%
[1]
  viability, T/C: 69.8%
[2]
  viability, T/C: 37.6%
[3]
  viability, T/C: 40.9%
[4]
  viability, T/C: 15%
Second compound 0.1 µM, first compound 0.00316 µM
  viability, T/C: 51.4%
Second compound 0.1 µM, first compound 0.01 µM
  viability, T/C: 61.5%
[5]
  viability, T/C: 52.3%
[6]
  viability, T/C: 28.4%
[7]
  viability, T/C: 16.5%
[8]
  viability, T/C: 8.02%
Second compound 0.316 µM, first compound 0.00316 µM
  viability, T/C: 23.2%
Second compound 0.316 µM, first compound 0.01 µM
  viability, T/C: 31.3%
[9]
  viability, T/C: 22.7%
[10]
  viability, T/C: 13.8%
[11]
  viability, T/C: 10.4%
[12]
  viability, T/C: 6.25%
Second compound 1 µM, first compound 0.00316 µM
  viability, T/C: 15.8%
Second compound 1 µM, first compound 0.01 µM
  viability, T/C: 18%
[13]
  viability, T/C: 13.4%
[14]
  viability, T/C: 11.4%
[15]
  viability, T/C: 8.84%
[16]
  viability, T/C: 6.02%
Second compound 3.16 µM, first compound 0.00316 µM
  viability, T/C: 10.4%
Second compound 3.16 µM, first compound 0.01 µM
  viability, T/C: 12.5%
Second compound 3.16 µM, first compound 0.0316 µM
  viability, T/C: 11.1%
Second compound 3.16 µM, first compound 0.1 µM
  viability, T/C: 8.84%
Second compound 3.16 µM, first compound 0.316 µM
  viability, T/C: 7.79%
Second compound 3.16 µM, first compound 1 µM
  viability, T/C: 4.87%
Second compound 10 µM, first compound 0.00316 µM
  viability, T/C: 9.04%
Second compound 10 µM, first compound 0.01 µM
  viability, T/C: 8.39%
Second compound 10 µM, first compound 0.0316 µM
  viability, T/C: 8.64%
Second compound 10 µM, first compound 0.1 µM
  viability, T/C: 7.72%
Second compound 10 µM, first compound 0.316 µM
  viability, T/C: 6.69%
Second compound 10 µM, first compound 1 µM
  viability, T/C: 3.95%

## CC1(O)CCCC1n1c(=O)c(C(F)F)cc2cnc(NC3CCN(S(C)(=O)=O)CC3)nc21 (centres undefined) + C=CC(=O)N1CCN(c2nc(OCC3CCCN3C)nc3c(F)c(-c4nc(N)cc(C)c4C(F)(F)F)c(Cl)cc23)C(C)C1
Second compound 0.00316 µM
  IC50: 4.05 µM
Second compound 0.01 µM
  IC50: 4.92 µM
Second compound 0.0316 µM
  IC50: 4.81 µM
Second compound 0.1 µM
  IC50: 5.15 µM
Second compound 0.316 µM
  IC50: 4.83 µM
Second compound 1 µM
  IC50: 4.94 µM
Second compound 0.00316 µM, first compound 0.0316 µM
  viability, T/C: 95.5%
Second compound 0.00316 µM, first compound 0.1 µM
  viability, T/C: 113%
Second compound 0.00316 µM, first compound 0.316 µM
  viability, T/C: 101%
Second compound 0.00316 µM, first compound 1 µM
  viability, T/C: 99.3%
Second compound 0.00316 µM, first compound 3.16 µM
  viability, T/C: 63%
Second compound 0.00316 µM, first compound 10 µM
  viability, T/C: 2.71%
Second compound 0.01 µM, first compound 0.0316 µM
  viability, T/C: 92.8%
Second compound 0.01 µM, first compound 0.1 µM
  viability, T/C: 96.8%
Second compound 0.01 µM, first compound 0.316 µM
  viability, T/C: 93.5%
Second compound 0.01 µM, first compound 1 µM
  viability, T/C: 96.8%
Second compound 0.01 µM, first compound 3.16 µM
  viability, T/C: 79.3%
Second compound 0.01 µM, first compound 10 µM
  viability, T/C: 2.97%
[1]
  viability, T/C: 101%
[2]
  viability, T/C: 135%
[3]
  viability, T/C: 87.8%
[4]
  viability, T/C: 107%
Second compound 0.0316 µM, first compound 3.16 µM
  viability, T/C: 77.5%
Second compound 0.0316 µM, first compound 10 µM
  viability, T/C: 2.9%
[5]
  viability, T/C: 95.3%
[6]
  viability, T/C: 109%
[7]
  viability, T/C: 105%
[8]
  viability, T/C: 89.9%
Second compound 0.1 µM, first compound 3.16 µM
  viability, T/C: 87%
Second compound 0.1 µM, first compound 10 µM
  viability, T/C: 2.79%
[9]
  viability, T/C: 91.3%
[10]
  viability, T/C: 118%
[11]
  viability, T/C: 88.1%
[12]
  viability, T/C: 84.1%
Second compound 0.316 µM, first compound 3.16 µM
  viability, T/C: 81.8%
Second compound 0.316 µM, first compound 10 µM
  viability, T/C: 2%
[13]
  viability, T/C: 117%
[14]
  viability, T/C: 123%
[15]
  viability, T/C: 94.9%
[16]
  viability, T/C: 115%
Second compound 1 µM, first compound 3.16 µM
  viability, T/C: 80.7%
Second compound 1 µM, first compound 10 µM
  viability, T/C: 1.52%
